Measured values: the CheMixHub ionic liquid set

Assay: xn = mol fraction of the nth substance listed

CCCCn1cc[n+](CCOCC[n+]2ccn(CCCC)c2)c1.N#C[N-]C#N.N#C[N-]C#N + CC[n+]1ccn(C)c1.N#C[N-]C#N + O=S(=O)([N-]S(=O)(=O)C(F)(F)F)C(F)(F)F.[Li+]
100 kPa, x1 = 0.2561, x2 = 0.6541
Settings	electrical conductivity [S/m]
298 K	0.527
303 K	0.737
313 K	0.921
323 K	1.35
333 K	1.74
343 K	2.13

CCCCCCCC[n+]1ccc2ccccc2c1.O=S(=O)([N-]S(=O)(=O)C(F)(F)F)C(F)(F)F + Cc1ccccc1
101 kPa
Settings	viscosity [mPa·s]
298.15 K, x2 = 0.0818	308
298.15 K, x2 = 0.4775	50.6
298.15 K, x2 = 0.4902	48.5
308.15 K, x2 = 0.0818	162.6
308.15 K, x2 = 0.2746	81.6
308.15 K, x2 = 0.4295	41.74
308.15 K, x2 = 0.4775	32.56
318.15 K, x2 = 0.1949	67
318.15 K, x2 = 0.6148	11.19
318.15 K, x2 = 0.8672	2.19
328.15 K, x2 = 0.3638	25.85
328.15 K, x2 = 0.4295	19.34
328.15 K, x2 = 0.5467	12.11
328.15 K, x2 = 0.7004	5.51
338.15 K, x2 = 0	44.8
338.15 K, x2 = 0.4775	11.71

CCCCCCCCCCCCCC[P+](CCCCCC)(CCCCCC)CCCCCC.N#C[N-]C#N + O
viscosity [mPa·s], 100 kPa
Settings	298.15 K	303.15 K
x1 = 0.5511	183	–
x1 = 0.8444	440	328

II + CCCCCCCCCCCC[n+]1ccn(C)c1.[I-]
Settings	electrical conductivity [S/m]
298 K, 101.3 kPa, x2 = 0.2	2.02

C[NH+](C)C.O=S(=O)([O-])O + O
298.15 K, 101 kPa
Settings	viscosity [mPa·s]
x2 = 0.0727	4.98
x2 = 0.2456	4.64
x2 = 0.3339	4.43
x2 = 0.5675	3.69
x2 = 0.8484	2.18
x2 = 0.9552	1.3

CC[n+]1ccn(C)c1.O=S(=O)([O-])C(F)(F)F + F[P-](F)(F)(F)(F)F.[Li+]
101 kPa, x1 = 1
Settings	electrical conductivity [S/m]
288.15 K	0.605
298.15 K	0.859
333.15 K	2.24

CCCCCCn1cc[n+](CCCCCC)c1.O=S(=O)([N-]S(=O)(=O)C(F)(F)F)C(F)(F)F + O
100 kPa, x2 = 0.1489
Settings	viscosity [mPa·s]
303.15 K	65.69
328.15 K	24.7

CC[n+]1ccn(C)c1.O=S(=O)([O-])C(F)(F)F + O=[N+]([O-])[O-].[Li+]
101 kPa, x1 = 1
Settings	electrical conductivity [S/m]
288.15 K	0.605
298.15 K	0.859
333.15 K	2.24

CC[n+]1ccn(C)c1.O=S(=O)([O-])C(F)(F)F + CC#N
viscosity [mPa·s], 100 kPa
Settings	298.15 K	303.15 K	308.15 K	313.15 K	318.15 K	323.15 K
x1 = 0.3948	4.5	4.1	3.8	3.5	–	–
x1 = 0.498	7.4	6.6	6	5.4	4.9	4.4
x1 = 0.595	–	9.5	8.4	7.5	6.7	6
x1 = 0.6936	–	–	–	–	9.5	8.3
x1 = 0.9005	34	–	–	–	–	–
x1 = 1	46	38	–	–	–	–

CNC=O + CC[n+]1ccn(C)c1.F[B-](F)(F)F
298 K, 101 kPa
Settings	electrical conductivity [S/m]
x1 = 0.21	2.08
x1 = 0.47	2.73
x1 = 0.66	2.95

Oc1cccnc1 + CCCC[n+]1ccn(C)c1.[Cl-]
Settings	viscosity [mPa·s]
293.15 K, 100 kPa, x1 = 0.333	179.1

CCCC[P+](CCCC)(CCCC)CCCC.[Br-] + OCCO
101.3 kPa, x1 = 0.333
Settings	viscosity [mPa·s]
293.15 K	122
323.15 K	29.9

CC[N+](C)(CC)CCOC.F[B-](F)(F)F + CC[N+](C)(CC)CCOC.O=S(=O)([N-]S(=O)(=O)C(F)(F)F)C(F)(F)F
100 kPa
Settings	electrical conductivity [S/m]
293.15 K, x2 = 0.1	0.112
298.15 K, x2 = 0.3	0.19
298.15 K, x2 = 0.7	0.227
298.15 K, x2 = 0.9	0.267
303.15 K, x2 = 0.9	0.341
308.15 K, x2 = 0.3	0.325
308.15 K, x2 = 0.5	0.356
313.15 K, x2 = 0.2	0.388
313.15 K, x2 = 0.3	0.409
313.15 K, x2 = 0.8	0.495
318.15 K, x2 = 0.4	0.525
318.15 K, x2 = 0.7	0.573
323.15 K, x2 = 0.2	0.595
323.15 K, x2 = 0.3	0.612
328.15 K, x2 = 0.2	0.722
328.15 K, x2 = 0.6	0.806
333.15 K, x2 = 0.1	0.892
333.15 K, x2 = 0.5	0.911
333.15 K, x2 = 0.7	0.948
338.15 K, x2 = 0.7	1.1
343.15 K, x2 = 0.2	1.19
343.15 K, x2 = 0.3	1.19
343.15 K, x2 = 0.8	1.25

O=C([O-])C(F)(F)F.O=S(=O)(O)n1cc[n+](S(=O)(=O)O)c1 + CC#N
101 kPa
Settings	electrical conductivity [S/m]
278.15 K, x1 = 0.02551	1.83
283.15 K, x1 = 0.02551	1.78
288.15 K, x1 = 0.02551	1.62
293.15 K, x1 = 0.02551	1.59
298.15 K, x1 = 0.0052	0.305
298.15 K, x1 = 0.0104	0.52
298.15 K, x1 = 0.0155	0.949
298.15 K, x1 = 0.0205	1.15
298.15 K, x1 = 0.0255	1.54
298.15 K, x1 = 0.02551	1.54
298.15 K, x1 = 0.05	2.02
303.15 K, x1 = 0.02551	1.27
308.15 K, x1 = 0.02551	1.25
313.15 K, x1 = 0.02551	1.25
318.15 K, x1 = 0.02551	1.25
323.15 K, x1 = 0.02551	0.803
328.15 K, x1 = 0.02551	0.486
333.15 K, x1 = 0.02551	0.401

CCc1n(S(=O)(=O)O)cc[n+]1S(=O)(=O)O.O=C([O-])C(F)(F)F + CC#N
101 kPa
Settings	electrical conductivity [S/m]
278.15 K, x1 = 0.02551	1.22
283.15 K, x1 = 0.02551	1.21
288.15 K, x1 = 0.02551	1.2
293.15 K, x1 = 0.02551	1.11
298.15 K, x1 = 0.0052	0.323
298.15 K, x1 = 0.0104	0.517
298.15 K, x1 = 0.0155	0.736
298.15 K, x1 = 0.0205	0.989
298.15 K, x1 = 0.0255	1.11
298.15 K, x1 = 0.02551	1.11
303.15 K, x1 = 0.02551	0.823
308.15 K, x1 = 0.02551	0.824
313.15 K, x1 = 0.02551	0.816
318.15 K, x1 = 0.02551	0.767
323.15 K, x1 = 0.02551	0.755
328.15 K, x1 = 0.02551	0.689
333.15 K, x1 = 0.02551	0.652

CCCCCCCC[n+]1ccc2ccccc2c1.O=S(=O)([N-]S(=O)(=O)C(F)(F)F)C(F)(F)F + CCCCCCO
101 kPa
Settings	viscosity [mPa·s]
318.15 K, x2 = 0.2857	48.99
338.15 K, x2 = 0.6854	6.58
